Measurements published in patent publication US20060166985A1, “Pyrrolydin-2-one derivatives as inhibitors of thrombin and factor xa” (priority 2002, published 2006).

Biological target: human Thrombin (Homo sapiens, UniProt P00734)
Test: In vitro assay for inhibition of Thrombin (chromogenic or fluorogenic assay)
Assay type: biochemical
Details: Example 2 chromogenic assay, other Examples fluorogenic assay, read-out: thrombin inhibitory Ki

Row | SMILES | Ki [nM]
1 | O=C([C@H](Cc1ccc(F)cc1)N1CC[C@H](NS(=O)(=O)CCc2ccc(Cl)s2)C1=O)N1CCOCC1 [Example 70, 2-(5-chloro-2-thienyl)-N-{(3S)-1-[(1S)-1-[(4-fluorophenyl)methyl]-2-(4-morpholinyl)-2-oxoethyl]-2-oxo-3-pyrrolidinyl}ethanesulfonamide] | < 50
2 | O=C([C@H](c1cccs1)N1CC[C@H](NS(=O)(=O)CCc2ccc(Cl)cc2)C1=O)N1CCOCC1 [Example 74, 2-(4-chlorophenyl)-N-{(3S)-1-[(1R)-2-(4-morpholinyl)-2-oxo-1-(2-thienyl)ethyl]-2-oxo-3-pyrrolidinyl}ethanesulfonamide] | < 100
3 | C[C@@H](C(=O)N1CCOCC1)N1CC[C@H](NS(=O)(=O)CCc2ccc(Cl)cc2F)C1=O [Example 25, 2-(4-chloro-2-fluorophenyl)-N-{(3S)-1-[(1S)-1-methyl-2-morpholin-4-yl-2-oxoethyl]-2-oxopyrrolidin-3-yl}ethanesulfonamide] | < 200
4 | O=C([C@H](Cc1ccncc1)N1CC[C@H](NS(=O)(=O)CCc2ccc(Cl)s2)C1=O)N1CCOCC1 [Example 90, 2-(5-chloro-2-thienyl)-N-{(3S)-1-[(1S)-2-(4-morpholinyl)-2-oxo-1-(4-pyridinylmethyl)ethyl]-2-oxo-3-pyrrolidinyl}ethanesulfonamide] | < 50
5 | CCOC[C@@H](C(=O)N1CCOCC1)N1CC[C@H](NS(=O)(=O)CCc2ccc(Cl)cn2)C1=O [Example 49, 2-(5-chloro-2-pyridinyl)-N-{(3S)-1-[(1S)-1-[(ethyloxy)methyl]-2-(4-morpholinyl)-2-oxoethyl]-2-oxo-3-pyrrolidinyl}ethanesulfonamide] | < 25
6 | O=C([C@H](c1cccs1)N1CC[C@H](NS(=O)(=O)CCc2ccc(Cl)s2)C1=O)N1CCOCC1 [Example 73, 2-(5-chloro-2-thienyl)-N-{(3S)-1-[(1R)-2-(4-morpholinyl)-2-oxo-1-(2-thienyl)ethyl]-2-oxo-3-pyrrolidinyl}ethanesulfonamide] | < 50

Results, then the compound that gave them:

Row | Ki [nM] | SMILES
7 | < 25 | CC[C@H](C)[C@@H](C(=O)N1CCOCC1)N1CC[C@H](NS(=O)(=O)CC(C)c2ccc(Cl)s2)C1=O (stereo partly drawn) [Example 57, 2-(5-chloro-2-thienyl)-N-{(3S)-1-[(1S,2S)-2-methyl-1-(4-morpholinylcarbonyl)butyl]-2-oxo-3-pyrrolidinyl}-1-propanesulfonamide]
8 | < 10 | CNC(=O)CN([C@H]1CCN([C@@H](COC)C(=O)N2CCOCC2)C1=O)S(=O)(=O)CCc1ccc(Cl)s1 [Example 98, N^2-{(2-(5-chloro-2-thienyl)ethyl]sulfonyl}-N^1-methyl-N^2-{(3S)-1-[(1S)-1-[(methyloxy)methyl]-2-(4-morpholinyl)-2-oxoethyl]-2-oxo-3-pyrrolidinyl}glycinamide]
9 | < 25 | CCOC[C@@H](C(=O)N1CCOCC1)N1CC[C@H](NS(=O)(=O)CC(C)c2ccc(Cl)s2)C1=O (stereo partly drawn) [Example 59, 2-(5-chloro-2-thienyl)-N-{(3S)-1-[(1S)-1-[(ethyloxy)methyl]-2-(4-morpholinyl)-2-oxoethyl]-2-oxo-3-pyrrolidinyl}-1-propanesulfonamide]
10 | < 10 | O=C([C@H](Cc1ncno1)N1CC[C@H](NS(=O)(=O)CCc2ccc(Cl)s2)C1=O)N1CCOCC1 [Example 77, 2-(5-chloro-2-thienyl)-N-{(3S)-1-[(1S)-2-(4-morpholinyl)-1-(1,2,4-oxadiazol-5-ylmethyl)-2-oxoethyl]-2-oxo-3-pyrrolidinyl}ethanesulfonamide]
